Experimental data from patent US20090137572A1, “2-substituted-4-heteroaryl-pyrimidines useful for the treatment of proliferative disorders” (priority 2004, published 2009).

Assays:
CDK1-cyclin B = CDK1-cyclin B (Homo sapiens, UniProt P06493); assay: Kinase assay (radioactive phosphate incorporation), CDK1-cyclin B; type: biochemical; conditions: read-out: Kinase Inhibition pIC50 CDK1-cyclin B (converted)
Method: (§1) Kinase assays. The compounds of the invention above were investigated for their ability to inhibit the enzymatic activity of various protein kinases (Table 2). This was achieved by measurement of incorporation of radioactive phosphate from ATP into appropriate polypeptide substrates. Recombinant protein kinases and kinase complexes were produced or obtained commercially. Assays were performed using 96-well plates and appropriate assay buffers (typically 25 mM β-glycerophosphate, 20 mM MOPS, 5 mM EGTA, 1 mM DTT, 1 mM […], pH 7.4), into which were added 2-4 μg of active enzyme with appropriate substrates. The reactions were initiated by addition of Mg/ATP mix (15 mM MgCl2+100 μM ATP with 30-50 kBq per well of [γ-^32P]-ATP) and mixtures incubated as required at 30° C. Reactions were stopped on ice, followed by filtration through p81 filterplates or GF/C filterplates (Whatman Polyfiltronics, Kent, UK). After washing 3 times with 75 mM aq orthophosphoric acid, plates were dried, scintillant added and incorporated radioactivity measured in a scintillation counter (TopCount, Packard Instruments, Pangbourne, Berks, UK). Compounds for kinase assay were made up as 10 mM stocks in DMSO and diluted into 10% DMSO in assay buffer.

CDK2-cyclin A = CDK2-cyclin A (Homo sapiens, UniProt P24941); assay: Kinase assay (radioactive phosphate incorporation), CDK2-cyclin A; type: biochemical; conditions: read-out: Kinase Inhibition pIC50 CDK2-cyclin A (converted)
Method: as §1

CDK2-cycline E = CDK2-cycline E (Homo sapiens, UniProt P24941); assay: Kinase assay (radioactive phosphate incorporation), CDK2-cyclin E; type: biochemical; conditions: read-out: Kinase Inhibition pIC50 CDK2-cycline E (converted)
How it was run: (§2)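 Each recombinant kinase was combined with its polypeptide substrate in pH 7.4 assay buffer. Mg/ATP mix carrying [γ-32P]-ATP (100 μM ATP) was then added and the plate incubated at 30° C. After stopping on ice, the reaction was filtered, washed with 75 mM orthophosphoric acid, dried and counted.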

CDK4-cyclin D1 = CDK4-cyclin D1 (Homo sapiens, UniProt P11802); assay: Kinase assay (radioactive phosphate incorporation), CDK4-cyclin D1; type: biochemical; conditions: read-out: Kinase Inhibition pIC50 CDK4-cyclin D1 (converted)
How it was run: as §2

CDK7/cyclin H = CDK7/cyclin H (Homo sapiens, UniProt P50613); assay: CDK 7 assay (CTD peptide substrate); type: biochemical; conditions: read-out: Kinase Inhibition pIC50 CDK7-cyclin H (converted)
How it was run: (§3)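 Inhibition measured against recombinant human kinase/cyclin complex phosphorylating biotin-(Tyr-Ser-Pro-Thr-Ser-Pro-Ser)4 peptide, 100 μM radiolabelled ATP, 45 min at 30° C. Product quantified by filter capture and scintillation counting.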

CDK9/cyclin T1 = CDK9/cyclin T1 (Homo sapiens, UniProt P50750); assay: CDK 9 assay (CTD peptide substrate); type: biochemical; conditions: read-out: Kinase Inhibition pIC50 CDK9-cyclin T1 (converted)
How it was run: as §3

[1] = molecular target: T1, Flt3 (FMS-like tyrosine kinase-3) (Homo sapiens, UniProt P36888); assay: Kinase assay (radioactive phosphate incorporation), Flt3; type: biochemical; conditions: pIC50 is -log(IC50, M), read-out: Kinase Inhibition pIC50 Flt3 (converted)
T1 sequence (P36888 27-993): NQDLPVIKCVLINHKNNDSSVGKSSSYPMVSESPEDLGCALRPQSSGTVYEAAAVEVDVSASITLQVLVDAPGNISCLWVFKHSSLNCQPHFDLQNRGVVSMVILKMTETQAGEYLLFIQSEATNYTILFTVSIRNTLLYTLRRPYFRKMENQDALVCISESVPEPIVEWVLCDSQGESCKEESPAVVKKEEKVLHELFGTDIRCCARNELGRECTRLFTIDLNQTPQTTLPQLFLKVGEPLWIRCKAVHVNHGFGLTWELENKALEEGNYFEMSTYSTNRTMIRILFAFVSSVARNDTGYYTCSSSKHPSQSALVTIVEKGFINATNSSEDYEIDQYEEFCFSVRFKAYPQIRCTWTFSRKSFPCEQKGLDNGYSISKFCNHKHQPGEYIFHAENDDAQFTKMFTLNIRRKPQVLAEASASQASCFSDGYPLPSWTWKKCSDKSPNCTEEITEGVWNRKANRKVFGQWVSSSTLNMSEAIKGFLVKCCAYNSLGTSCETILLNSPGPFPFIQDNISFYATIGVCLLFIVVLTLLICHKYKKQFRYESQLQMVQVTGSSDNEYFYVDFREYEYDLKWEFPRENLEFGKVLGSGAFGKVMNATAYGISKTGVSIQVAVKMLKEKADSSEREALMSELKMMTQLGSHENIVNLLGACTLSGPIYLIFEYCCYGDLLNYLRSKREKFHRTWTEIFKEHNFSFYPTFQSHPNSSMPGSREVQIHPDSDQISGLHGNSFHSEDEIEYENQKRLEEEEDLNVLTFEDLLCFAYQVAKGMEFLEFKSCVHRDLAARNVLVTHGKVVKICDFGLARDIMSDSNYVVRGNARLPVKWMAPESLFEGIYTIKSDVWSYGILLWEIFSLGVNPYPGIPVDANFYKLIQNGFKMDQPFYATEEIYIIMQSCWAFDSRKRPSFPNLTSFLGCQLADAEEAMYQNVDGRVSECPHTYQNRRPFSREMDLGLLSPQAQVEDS
How it was run: as §2

Aurora A kinase = molecular target: T2, Aurora A kinase (Homo sapiens, UniProt O14965); assay: Aurora-A (human) kinase assay (Kemptide substrate); type: biochemical; conditions: pIC50 is -log(IC50, M); 15 μM ATP; read-out: Kinase Inhibition pIC50 Aurora A kinase (converted)
T2 construct: purchased
T2 sequence (O14965 1-403): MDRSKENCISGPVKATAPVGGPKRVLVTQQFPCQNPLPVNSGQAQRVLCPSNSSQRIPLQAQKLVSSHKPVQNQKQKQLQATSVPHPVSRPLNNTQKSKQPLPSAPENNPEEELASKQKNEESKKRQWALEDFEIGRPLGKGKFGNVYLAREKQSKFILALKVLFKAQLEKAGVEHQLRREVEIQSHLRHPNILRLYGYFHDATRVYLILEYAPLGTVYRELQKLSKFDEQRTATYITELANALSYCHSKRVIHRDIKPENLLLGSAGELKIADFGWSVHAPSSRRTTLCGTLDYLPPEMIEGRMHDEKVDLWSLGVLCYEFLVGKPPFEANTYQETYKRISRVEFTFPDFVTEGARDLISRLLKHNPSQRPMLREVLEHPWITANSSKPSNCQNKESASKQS
How it was run: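 Kemptide (LRRASLG, 200 μM) phosphorylation by 5-10 ng commercial aurora-A measured as [γ-33P] incorporation at 15 μM ATP with 10 mM Mg acetate, pH 7.0 MOPS buffer. Reaction ran 40 min at room temperature; acid-stopped, captured on P81 filters, scintillation read.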

GSK3b = GSK3b (Homo sapiens, UniProt P49841); assay: Kinase assay (radioactive phosphate incorporation), GSK-3b; type: biochemical; conditions: read-out: Kinase Inhibition pIC50 GSK-3b (converted)
How it was run: as §2

Chain of CDK4-cyclin D1 (P11802 whole entry): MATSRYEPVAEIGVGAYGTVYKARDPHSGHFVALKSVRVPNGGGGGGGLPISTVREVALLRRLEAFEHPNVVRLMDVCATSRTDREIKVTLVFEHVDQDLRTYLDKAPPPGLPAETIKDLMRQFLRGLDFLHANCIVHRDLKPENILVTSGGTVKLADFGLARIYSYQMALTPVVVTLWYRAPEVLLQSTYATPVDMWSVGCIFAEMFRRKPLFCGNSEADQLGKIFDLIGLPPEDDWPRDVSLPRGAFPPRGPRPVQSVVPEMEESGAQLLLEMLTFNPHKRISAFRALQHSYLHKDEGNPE
Chain of CDK4-cyclin D1 (P24385 whole entry partner): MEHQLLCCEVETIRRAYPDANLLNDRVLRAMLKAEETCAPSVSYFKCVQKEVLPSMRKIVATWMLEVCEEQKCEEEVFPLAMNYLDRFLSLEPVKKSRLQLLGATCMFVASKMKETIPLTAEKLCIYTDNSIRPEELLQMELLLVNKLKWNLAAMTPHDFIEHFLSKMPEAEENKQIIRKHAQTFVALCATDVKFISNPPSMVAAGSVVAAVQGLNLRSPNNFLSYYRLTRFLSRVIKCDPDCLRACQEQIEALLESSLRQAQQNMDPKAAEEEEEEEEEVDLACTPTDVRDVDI
Chain of CDK9/cyclin T1 (P50750 whole entry): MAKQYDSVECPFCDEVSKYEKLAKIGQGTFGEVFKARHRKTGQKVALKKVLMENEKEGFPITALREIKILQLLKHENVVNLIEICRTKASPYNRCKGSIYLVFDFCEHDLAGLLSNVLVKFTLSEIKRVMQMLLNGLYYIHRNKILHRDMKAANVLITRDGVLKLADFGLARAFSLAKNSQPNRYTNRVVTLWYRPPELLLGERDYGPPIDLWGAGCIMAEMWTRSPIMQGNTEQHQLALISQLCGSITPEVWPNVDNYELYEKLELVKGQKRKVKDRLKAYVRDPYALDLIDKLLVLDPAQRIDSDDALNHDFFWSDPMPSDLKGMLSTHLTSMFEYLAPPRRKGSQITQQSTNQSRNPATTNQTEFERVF
Chain of CDK9/cyclin T1 (O60563 whole entry partner): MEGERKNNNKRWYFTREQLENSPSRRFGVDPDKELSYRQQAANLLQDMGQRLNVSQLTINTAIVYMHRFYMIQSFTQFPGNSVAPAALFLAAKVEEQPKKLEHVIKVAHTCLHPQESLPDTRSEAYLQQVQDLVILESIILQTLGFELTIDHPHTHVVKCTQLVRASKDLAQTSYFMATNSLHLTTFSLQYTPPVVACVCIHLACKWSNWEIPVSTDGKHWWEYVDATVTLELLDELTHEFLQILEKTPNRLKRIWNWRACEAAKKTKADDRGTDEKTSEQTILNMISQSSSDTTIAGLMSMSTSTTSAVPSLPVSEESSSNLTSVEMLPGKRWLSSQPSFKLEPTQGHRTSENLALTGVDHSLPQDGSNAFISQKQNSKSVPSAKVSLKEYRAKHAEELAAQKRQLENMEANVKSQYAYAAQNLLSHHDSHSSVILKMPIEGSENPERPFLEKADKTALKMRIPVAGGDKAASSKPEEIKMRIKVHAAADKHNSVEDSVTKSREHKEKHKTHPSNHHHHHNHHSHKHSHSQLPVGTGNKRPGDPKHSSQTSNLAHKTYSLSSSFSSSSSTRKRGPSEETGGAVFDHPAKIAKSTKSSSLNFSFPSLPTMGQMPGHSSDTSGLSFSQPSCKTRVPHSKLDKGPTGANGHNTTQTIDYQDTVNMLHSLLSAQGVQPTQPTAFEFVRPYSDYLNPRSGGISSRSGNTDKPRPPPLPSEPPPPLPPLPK
Chain of CDK1-cyclin B (P06493 whole entry): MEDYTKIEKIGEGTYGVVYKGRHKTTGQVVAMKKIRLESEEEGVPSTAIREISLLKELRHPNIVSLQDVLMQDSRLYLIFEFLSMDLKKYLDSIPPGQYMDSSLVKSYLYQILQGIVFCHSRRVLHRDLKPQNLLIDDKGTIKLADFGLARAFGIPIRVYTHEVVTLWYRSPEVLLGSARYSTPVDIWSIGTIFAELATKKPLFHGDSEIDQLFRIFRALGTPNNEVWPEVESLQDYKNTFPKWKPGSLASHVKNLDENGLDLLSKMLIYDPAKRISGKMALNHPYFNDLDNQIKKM
Chain of CDK1-cyclin B (P14635 whole entry partner): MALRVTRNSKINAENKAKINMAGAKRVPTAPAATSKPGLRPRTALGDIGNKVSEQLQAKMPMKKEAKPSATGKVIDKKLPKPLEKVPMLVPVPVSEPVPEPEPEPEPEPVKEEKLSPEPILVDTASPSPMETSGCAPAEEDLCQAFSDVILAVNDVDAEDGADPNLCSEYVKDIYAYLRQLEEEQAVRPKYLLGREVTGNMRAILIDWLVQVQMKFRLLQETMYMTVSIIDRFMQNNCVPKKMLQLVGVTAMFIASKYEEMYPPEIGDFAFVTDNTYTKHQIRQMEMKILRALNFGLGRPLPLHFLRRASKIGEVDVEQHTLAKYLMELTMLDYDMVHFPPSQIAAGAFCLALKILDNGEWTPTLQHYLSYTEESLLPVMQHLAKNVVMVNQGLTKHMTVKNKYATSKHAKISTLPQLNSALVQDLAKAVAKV
Chain of GSK3b (P49841 whole entry, species assumed): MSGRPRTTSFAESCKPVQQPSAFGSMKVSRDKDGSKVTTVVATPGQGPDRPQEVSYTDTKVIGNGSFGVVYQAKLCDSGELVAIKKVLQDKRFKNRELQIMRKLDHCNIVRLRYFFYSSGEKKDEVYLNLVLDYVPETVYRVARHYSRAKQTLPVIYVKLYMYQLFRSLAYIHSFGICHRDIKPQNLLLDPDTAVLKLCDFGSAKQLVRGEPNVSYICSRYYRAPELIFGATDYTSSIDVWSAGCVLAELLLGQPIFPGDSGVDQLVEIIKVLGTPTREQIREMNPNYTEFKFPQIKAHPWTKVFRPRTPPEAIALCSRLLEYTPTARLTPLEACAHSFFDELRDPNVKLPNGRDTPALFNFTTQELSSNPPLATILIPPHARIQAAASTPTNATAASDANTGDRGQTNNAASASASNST
Chain of CDK7/cyclin H (P50613 whole entry): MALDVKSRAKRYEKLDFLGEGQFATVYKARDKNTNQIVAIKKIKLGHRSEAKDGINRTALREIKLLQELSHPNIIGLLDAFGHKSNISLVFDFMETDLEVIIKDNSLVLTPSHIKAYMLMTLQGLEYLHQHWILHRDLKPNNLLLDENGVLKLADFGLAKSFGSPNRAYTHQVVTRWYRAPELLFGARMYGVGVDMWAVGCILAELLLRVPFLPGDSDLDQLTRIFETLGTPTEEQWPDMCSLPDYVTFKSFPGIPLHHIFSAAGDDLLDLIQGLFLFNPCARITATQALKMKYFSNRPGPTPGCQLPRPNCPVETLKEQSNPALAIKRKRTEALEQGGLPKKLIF
Chain of CDK7/cyclin H (P51946 whole entry partner): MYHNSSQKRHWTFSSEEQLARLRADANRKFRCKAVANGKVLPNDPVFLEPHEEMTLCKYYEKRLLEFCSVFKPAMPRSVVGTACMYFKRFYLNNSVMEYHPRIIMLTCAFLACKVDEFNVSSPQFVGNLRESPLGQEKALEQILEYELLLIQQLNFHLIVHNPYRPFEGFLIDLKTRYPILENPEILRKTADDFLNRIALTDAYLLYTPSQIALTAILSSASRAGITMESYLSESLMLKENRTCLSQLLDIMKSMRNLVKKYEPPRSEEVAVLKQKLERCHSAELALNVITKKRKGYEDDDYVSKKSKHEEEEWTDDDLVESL

Row | SMILES | IC50 (CDK1-cyclin B) [nM] | IC50 (CDK2-cyclin A) [nM] | IC50 (CDK2-cycline E) [nM] | IC50 (CDK4-cyclin D1) [nM] | IC50 (CDK7/cyclin H) [nM] | IC50 (CDK9/cyclin T1) [nM] | IC50 [1] [nM] | IC50 (Aurora A kinase) [nM] | IC50 (GSK3b) [nM] | melting point [°C]
1 | Cc1nc(N)sc1-c1ccnc(Nc2cccc(CNS(C)(=O)=O)c2)n1 [Compound 6, N-{3-[4-(2-Amino-4-methyl-thiazol-5-yl)-pyrimidin-2-ylamino]-benzyl}-methanesulfonamide] | 1000 | 398 | 100 | 200 | 126 | 7.94 | 50.1 | 126 | – | –
2 | CNc1nc(C)c(-c2ccnc(Nc3cccc(N4CCNCC4)c3)n2)s1 [Compound 7, [4-(4-Methyl-2-methylamino-thiazol-5-yl)-pyrimidin-2-yl]-(3-piperazin-1-yl-phenyl)-amine] | 3160 | 2510 | 398 | 1000 | 631 | 200 | 12.6 | 200 | – | –
3 | CCNc1nc(C)c(-c2ccnc(Nc3cccc(CNS(=O)(=O)C(F)(F)F)c3)n2)s1 [Compound 10, N-{3-[4-(2-Ethylamino-4-methyl-thiazol-5-yl)-pyrimidin-2-ylamino]-benzyl}-C,C,C-trifluoro-methanesulfonamide] | – | 6310 | 1580 | – | 6310 | 316 | 158 | 2000 | 6310 | –
4 | CCNc1nc(C)c(-c2ccnc(Nc3ccc(CNC(C)=O)cc3)n2)s1 [Compound 13, N-{4-[4-(2-Ethylamino-4-methyl-thiazol-5-yl)-pyrimidin-2-ylamino]-benzyl}-acetamide] | 631 | 126 | – | 63.1 | 200 | 25.1 | 31.6 | 15.8 | – | –
5 | CCNc1nc(C)c(-c2ccnc(Nc3cccc(S(=O)(=O)NC)c3)n2)s1 [Compound 22, 3-[4-(2-Ethylamino-4-methyl-thiazol-5-yl)-pyrimidin-2-ylamino]-N-methyl-benzenesulfonamide] | 1000 | 794 | 100 | 200 | 100 | 39.8 | 79.4 | 63.1 | – | –
6 | CCNc1nc(C)c(-c2ccnc(Nc3cccc(S(C)(=O)=O)c3)n2)s1 [Compound 28, [4-(2-Ethylamino-4-methyl-thiazol-5-yl)-pyrimidin-2-yl]-(3-methanesulfonyl-phenyl)-amine] | – | 794 | 15.8 | 251 | 100 | 3.16 | 79.4 | – | 631 | –
7 | CCNS(=O)(=O)c1cccc(Nc2nccc(-c3sc(NC)nc3C)n2)c1 [Compound 31, N-Ethyl-3-[4-(4-methyl-2-methylamino-thiazol-5-yl)-pyrimidin-2-ylamino]-benzenesulfonamide] | 501 | 1260 | 251 | 50.1 | 1000 | 20 | 63.1 | 63.1 | – | –
8 | CNc1nc(C)c(-c2ccnc(Nc3ccc(S(=O)(=O)NCCOC)cc3)n2)s1 [Compound 40, N-(2-Methoxy-ethyl)-4-[4-(4-methyl-2-methylamino-thiazol-5-yl)-pyrimidin-2-ylamino]-benzenesulfonamide] | 79.4 | 15.8 | 3.16 | – | – | 158 | – | 5.01 | 501 | –
9 | COCCNS(=O)(=O)c1ccc(Nc2nccc(-c3sc(N)nc3C)n2)cc1 [Compound 41, 4-[4-(2-Amino-4-methyl-thiazol-5-yl)-pyrimidin-2-ylamino]-N-(2-methoxy-ethyl)-benzenesulfonamide] | 50.1 | 15.8 | 7.94 | 501 | 3160 | – | – | 50.1 | 794 | –
10 | CCNc1nc(C)c(-c2ccnc(Nc3cccc(CC(=O)OCCOC)c3)n2)s1 [Compound 45, {3-[4-(2-Ethylamino-4-methyl-thiazol-5-yl)-pyrimidin-2-ylamino]-phenyl}-acetic acid 2-methoxy-ethyl ester] | 5010 | 3160 | 2510 | 3160 | 3980 | 398 | 100 | 15.8 | – | –
11 | COCCNS(=O)(=O)c1cccc(Nc2nccc(-c3sc(C)nc3C)n2)c1 [Compound 56, 3-[4-(2,4-Dimethyl-thiazol-5-yl)-pyrimidin-2-ylamino]-N-(2-methoxy-ethyl)-benzenesulfonamide] | – | 3980 | – | – | 5010 | 501 | – | 126 | 1260 | 197 to 198
12 | CCNc1nc(C)c(-c2ccnc(Nc3ccc(N4CCN(Cc5ccccc5)CC4)cc3)n2)s1 [Compound 60, [4-(4-Benzyl-piperazin-1-yl)-phenyl]-[4-(2-ethylamino-4-methyl-thiazol-5-yl)-pyrimidin-2-yl]-amine] | 6310 | 3160 | 631 | 158 | 200 | 316 | 39.8 | 50.1 | – | –
13 | Cc1nc(N)sc1-c1ccnc(Nc2ccc(N3CCNCC3)cc2)n1 [Compound 61, [4-(2-Amino-4-methyl-thiazol-5-yl)-pyrimidin-2-yl]-(4-piperazin-1-yl-phenyl)-amine] | 6310 | 2000 | 398 | 251 | 398 | 158 | 63.1 | 20 | – | –
